These results are taken from US20220127247A1, “N-(PYRIDIN-2-YL)PYRIDINE-SULFONAMIDE DERIVATIVES AND THEIR USE IN THE TREATMENT OF DISEASE” (NOVARTIS AG, priority 2019, published 2022).

The test deals with T1, delF508-CFTR (Homo sapiens, UniProt P13569, DEL508-508).
T1 construct: expressed in transfected cells
The test is described as follows: Measurement of delF508-CFTR-HRP surface expression in CFBE41o- cells. Particulars: for EC50: HRP-tagged delF508-CFTR in CFBE41o- cells, 24 h with compound, luminescence, 10-point curve, top 10 μM; for Emax: efficacy relative to reference compound 3-(6-(1-(2,2-difluorobenzo[d][1,3]dioxol-5-yl)cyclopropane-1-carboxamido)-3-methylpyridin-2-yl)benzoic acid, CFBE41o- cells, 24 h, read-out: DelF508-CFTR-HRP Amax %. In kind it is cell-based. From the text:
Measurement of delF508-CFTR-HRP Surface Expression in CFBE41o-Cells
This assay quantifies the cell surface expressions of the mutant CFTR channel using an extracellular HRP tag.
A cellular assay was developed to measure surface expression of horseradish peroxidase (HRP) tagged delF508-CFTR in the human bronchial epithelial immortalized CFBE41o-cell line (Phuan, P. W., et al, (2014) Molecular Pharmacology 86:42-51). Specifically, the HRP sequence was inserted into the fourth extracellular loop of delF508-CFTR and stably expressed in CFBE41o-cells. Cells were seeded in 384 well plate at a density of 5000 cells/well and incubated at 37° C. for 12 to 24 hours in medium (Gibco MEM #11095, 10% FBS, 10 mM HEPES, […], 200 μg/mL G418, 3 μg/mL Puromycin). The delF508-CFTR-HRP expression was induced with 500 ng/mL doxycycline (Sigma D-9891, dissolved in H2O and sterile filtered) in medium and the cells were incubated at 37° C. for 48 h. Old medium was removed and fresh medium was added containing 500 ng/mL doxycycline and unknown test compound at required test concentration in DMSO, not exceeding 0.5% final DMSO concentration. The highest concentration tested was 10 μM with a 10-point concentration response curve using a 3-fold dilution. After addition of compounds, the cells were incubated for 24 h at 37° C. On the final day, cells were washed four times in PBS containing 1 mM MgCl2 and 0.1 mM CaCl2. HRP-Substrate (SuperSignal ELISA Pico, Fisher #37069) 20 μl/well was added and the luminescence signal was determined (Viewlux, Perkin Elmer). Light was emitted upon addition of exogenous HRP-Substrate only when delF508-CFTR-HRP reached the cell surface and the HRP tag was accessible to the HRP-Substrate (note: HRP-Substrate cannot cross the lipid bilayer to reach delF508-CFTR-HRP misfolded within the cell).
The median activity for the lowest concentration of the compounds on each assay plate was calculated and this value was used to normalize the signal for each well on the respective plate. Three replicates at each concentrations for every compound were run to determine one EC50. The median value was determined and used to calculate compound activities as described below. Effective half maximal values (EC50) were calculated for each compound by performing logistic regression on measured dose-response data points using the equation: […]
where “Y” is the observed activity, “Bottom” is the lowest observed value, “Top” is the highest observed value, and the “Hill coefficient” gives the largest absolute value of the slope. The curve fitting is carried out by a curve fitting program implemented at GNF using Matlab (Mathworks).
The dose response curves also were used to calculate Fold Change (FC) using the equation: […]
Compound efficacy relative to the reference compound 3-(6-(1-(2,2-difluorobenzo[d][1,3]dioxol-5-yl)cyclopropane-1-carboxamido)-3-methylpyridin-2-yl)benzoic acid was determined using the following formula: […]

T1 sequence (P13569 with tags, fused parts or gaps DEL508-508): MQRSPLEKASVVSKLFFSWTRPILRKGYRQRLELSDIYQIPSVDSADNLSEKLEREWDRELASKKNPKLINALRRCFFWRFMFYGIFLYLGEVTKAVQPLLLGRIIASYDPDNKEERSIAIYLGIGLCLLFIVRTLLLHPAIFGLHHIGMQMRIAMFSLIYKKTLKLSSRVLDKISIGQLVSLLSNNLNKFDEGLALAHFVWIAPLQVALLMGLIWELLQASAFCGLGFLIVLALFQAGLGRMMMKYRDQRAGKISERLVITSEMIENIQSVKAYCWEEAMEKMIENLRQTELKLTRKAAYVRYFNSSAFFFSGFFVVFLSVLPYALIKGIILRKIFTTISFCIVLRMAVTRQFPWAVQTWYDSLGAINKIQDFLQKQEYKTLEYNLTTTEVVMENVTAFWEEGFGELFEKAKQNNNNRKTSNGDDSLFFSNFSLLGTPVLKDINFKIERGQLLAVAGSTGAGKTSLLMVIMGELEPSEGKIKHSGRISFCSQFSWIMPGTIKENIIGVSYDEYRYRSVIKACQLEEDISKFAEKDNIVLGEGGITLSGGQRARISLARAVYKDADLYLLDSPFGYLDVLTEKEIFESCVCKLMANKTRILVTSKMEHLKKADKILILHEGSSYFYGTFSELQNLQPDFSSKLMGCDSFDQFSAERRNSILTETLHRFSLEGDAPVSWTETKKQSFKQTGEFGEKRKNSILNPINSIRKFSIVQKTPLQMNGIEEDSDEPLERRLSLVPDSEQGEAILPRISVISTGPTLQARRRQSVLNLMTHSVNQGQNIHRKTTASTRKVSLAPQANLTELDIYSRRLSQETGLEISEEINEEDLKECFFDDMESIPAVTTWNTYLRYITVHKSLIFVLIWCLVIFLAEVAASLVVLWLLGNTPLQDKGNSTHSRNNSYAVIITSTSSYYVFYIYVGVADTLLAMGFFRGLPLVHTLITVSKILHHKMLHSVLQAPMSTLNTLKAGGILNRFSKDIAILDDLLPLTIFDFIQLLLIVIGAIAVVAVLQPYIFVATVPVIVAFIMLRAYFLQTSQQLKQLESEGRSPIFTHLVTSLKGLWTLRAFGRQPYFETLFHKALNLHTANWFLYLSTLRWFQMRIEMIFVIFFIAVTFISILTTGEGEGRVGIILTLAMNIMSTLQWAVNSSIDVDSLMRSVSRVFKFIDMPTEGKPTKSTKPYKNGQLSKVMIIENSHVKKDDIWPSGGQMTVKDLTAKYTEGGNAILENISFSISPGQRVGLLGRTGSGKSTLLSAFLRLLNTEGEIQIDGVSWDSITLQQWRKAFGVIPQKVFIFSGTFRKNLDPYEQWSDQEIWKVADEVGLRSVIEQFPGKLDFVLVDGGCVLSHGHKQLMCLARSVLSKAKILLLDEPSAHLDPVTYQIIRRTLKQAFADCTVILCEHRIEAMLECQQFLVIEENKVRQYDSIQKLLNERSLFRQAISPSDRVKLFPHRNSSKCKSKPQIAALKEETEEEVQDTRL

Regarding `CC1(C(=O)O)CCN(c2cccc(S(=O)(=O)Nc3ccc(C(F)(F)F)c(-c4ccccc4-c4ncccn4)n3)n2)CC1` [Compound 18, 4-methyl-1-(6-(N-(6-(2-(pyrimidin-2-yl)phenyl)-5-(trifluoromethyl)pyridin-2-yl)sulfamoyl)pyridin-2-yl)piperidine-4-carboxylic Acid], the EC50 was found to be 2.39 µM and the Emax came to 97%.

`CC1(C(=O)O)CCN(c2cccc(S(=O)(=O)Nc3ccc(Cl)c(-c4ccccc4-c4ccccc4)n3)n2)CC1` [Compound 19, 1-(6-(N-(6-([1,1′-biphenyl]-2-yl)-5-chloropyridin-2-yl)sulfamoyl)pyridin-2-yl)-4-methylpiperidine-4-carboxylic Acid]: the EC50 was 2.24 µM and the Emax is 378%.

Take `CC1(C(=O)O)CCN(c2cccc(S(=O)(=O)Nc3ccc(C(F)(F)F)c(-c4ccccc4-c4ccccc4)n3)n2)CC1` [Compound 20, 1-(6-(N-(6-([1,1′-biphenyl]-2-yl)-5-(trifluoromethyl)pyridin-2-yl)sulfamoyl)pyridin-2-yl)-4-methylpiperidine-4-carboxylic Acid]: the EC50 was 0.8 µM and the Emax was 973%.

As for `COc1ccc(Cl)c(-c2nc(NS(=O)(=O)c3cccc(N4CCN(c5ccc(C(=O)O)cc5)CC4)n3)ccc2C(F)(F)F)c1` [Compound 21, 4-(4-(6-(N-(6-(2-chloro-5-methoxyphenyl)-5-(trifluoromethyl)pyridin-2-yl)sulfamoyl)pyridin-2-yl)piperazin-1-yl)benzoic Acid], the EC50 came to 2.93 µM and the Emax was found to be 361%.

For the compound `CCc1ccccc1-c1nc(NS(=O)(=O)c2cccc(N3CCC(C)(CC(=O)O)CC3)n2)ccc1C(F)(F)F` [Compound 22, 2-(1-(6-(N-(6-(2-ethylphenyl)-5-(trifluoromethyl)pyridin-2-yl)sulfamoyl)pyridin-2-yl)-4-methylpiperidin-4-yl)acetic Acid], the concentration giving a half-maximal response (EC50) was found to be 1.06 µM and the Emax is 485%.

Regarding `CC1(CC(=O)O)CCN(c2cccc(S(=O)(=O)Nc3ccc(C(F)(F)F)c(-c4ccccc4-c4ccccc4)n3)n2)CC1` [Compound 23, 2-(1-(6-(N-(6-([1,1′-biphenyl]-2-yl)-5-(trifluoromethyl)pyridin-2-yl)sulfamoyl)pyridin-2-yl)-4-methylpiperidin-4-yl)acetic acid], the EC50 worked out at 1.26 µM.

With `CC1(CC(=O)O)CCN(c2cccc(S(=O)(=O)Nc3ccc(C(F)(F)F)c(-c4ccccc4C4CCC4)n3)n2)CC1` [Compound 24, 2-(1-(6-(N-(6-(2-cyclobutylphenyl)-5-(trifluoromethyl)pyridin-2-yl)sulfamoyl)pyridin-2-yl)-4-methylpiperidin-4-yl)acetic Acid], the EC50 was determined as 1.31 µM and the Emax is 909%.

For the compound `CC(C)c1ccccc1-c1nc(NS(=O)(=O)c2cccc(N3CCC(C)(CC(=O)O)CC3)n2)ccc1C(F)(F)F` [Compound 25, 2-(1-(6-(N-(6-(2-isopropylphenyl)-5-(trifluoromethyl)pyridin-2-yl)sulfamoyl)pyridin-2-yl)-4-methylpiperidin-4-yl)acetic Acid], the EC50 was found to be 1 µM and the Emax stood at 780%.

With `CC1(CC(=O)O)CCN(c2cccc(S(=O)(=O)Nc3ccc(C(F)(F)F)c(-c4ccccc4C(C)(C)C)n3)n2)CC1` [Compound 26, 2-(1-(6-(N-(6-(2-(tert-butyl)phenyl)-5-(trifluoromethyl)pyridin-2-yl)sulfamoyl)pyridin-2-yl)-4-methylpiperidin-4-yl)acetic Acid], the EC50 was 0.83 µM and the Emax turned out to be 829%.

As for `CC1(C(=O)O)CCN(c2cccc(S(=O)(=O)Nc3ccc(C(F)(F)F)c(-c4ccccc4-c4ccncc4)n3)n2)CC1` [Compound 27, 4-methyl-1-(6-(N-(6-(2-(pyridin-4-yl)phenyl)-5-(trifluoromethyl)pyridin-2-yl)sulfamoyl)pyridin-2-yl)piperidine-4-carboxylic Acid], the EC50 worked out at 2.07 µM and the Emax turned out to be 189%.

Take `CC1(C(=O)O)CCN(c2cccc(S(=O)(=O)Nc3ccc(C(F)(F)F)c(-c4ccccc4Oc4ccccc4)n3)n2)CC1` [Compound 28, 4-methyl-1-(6-(N-(6-(2-phenoxyphenyl)-5-(trifluoromethyl)pyridin-2-yl)sulfamoyl)pyridin-2-yl)piperidine-4-carboxylic Acid]: the EC50 is 1.45 µM and the Emax stood at 442%.

`CC1(C(=O)O)CCCN(c2cccc(S(=O)(=O)Nc3ccc(Cl)c(-c4ccccc4-c4ccccc4)n3)n2)C1` (centres unmarked) [Compound 29, 1-(6-(N-(6-([1,1′-biphenyl]-2-yl)-5-chloropyridin-2-yl)sulfamoyl)pyridin-2-yl)-3-methylpiperidine-3-carboxylic Acid]: the EC50 is 1.3 µM and the Emax was 969%.

For the compound `CC(C)c1ccncc1-c1nc(NS(=O)(=O)c2cccc(N3CCCC(C)(C(=O)O)C3)n2)ccc1C(F)(F)F` (centres unmarked) [Compound 30, 1-(6-(N-(4′-isopropyl-3-(trifluoromethyl)-[2,3′-bipyridin]-6-yl)sulfamoyl)pyridin-2-yl)-3-methylpiperidine-3-carboxylic Acid], the EC50 was 2.22 µM and the Emax is 303%.

As to `CC(C)c1ccccc1-c1nc(NS(=O)(=O)c2cccc(N3CCC(OCC(=O)O)CC3)n2)ccc1C(F)(F)F` [Compound 31, 2-((1-(6-(N-(6-(2-isopropylphenyl)-5-(trifluoromethyl)pyridin-2-yl)sulfamoyl)pyridin-2-yl)piperidin-4-yl)nxy)acetic Acid], the EC50 came to 2.14 µM and the Emax was 443%.

Take `Cc1ccccc1-c1nc(NS(=O)(=O)c2cccc(N3CCC(CC(=O)O)C3)n2)ccc1C(F)(F)F` (centres unmarked) [Compound 32, 2-(1-(6-(N-(6-(o-tolyl)-5-(trifluoromethyl)pyridin-2-yl)sulfamoyl)pyridin-2-yl)pyrrolidin-3-yl)acetic Acid]: the concentration giving a half-maximal response (EC50) stood at 1.8 µM and the Emax worked out at 372%.

Turning to `O=C(O)CC1CCN(c2cccc(S(=O)(=O)Nc3ccc(C(F)(F)F)c(-c4ccccc4C4CC4)n3)n2)C1` (centres unmarked) [Compound 33, 2-(1-(6-(N-(6-(2-cyclopropylphenyl)-5-(trifluoromethyl)pyridin-2-yl)sulfamoyl)pyridin-2-yl)pyrrolidin-3-yl)acetic Acid], the EC50 amounted to 1.28 µM and the Emax was 320%.

Take `Cc1ccccc1-c1nc(NS(=O)(=O)c2cccc(N(C)CCC(=O)O)n2)ccc1C(F)(F)F` [Compound 34, 3-(methyl(6-(N-(6-(o-tolyl)-5-(trifluoromethyl)pyridin-2-yl)sulfamoyl)pyridin-2-yl)amino)propanoic Acid]: the concentration for a half-maximal effect (EC50) is 2.58 µM and the Emax was 785%.

In the case of `Cc1ccccc1-c1nc(NS(=O)(=O)c2cccc(NCCC(=O)O)n2)ccc1C(F)(F)F` [Compound 35, 3-((6-(N-(6-(o-tolyl)-5-(trifluoromethyl)pyridin-2-yl)sulfamoyl)pyridin-2-yl)amino)propanoic acid], the EC50 is 2.6 µM and the Emax turned out to be 209%.

Take `Cc1ccccc1-c1nc(NS(=O)(=O)c2cccc(NCCCC(=O)O)n2)ccc1C(F)(F)F` [Compound 36, 4-((6-(N-(6-(o-tolyl)-5-(trifluoromethyl)pyridin-2-yl)sulfamoyl)pyridin-2-yl)amino)butanoic Acid]: the EC50 turned out to be 2.96 µM and the Emax turned out to be 222%.

For `Cc1ccccc1-c1nc(NS(=O)(=O)c2cccc(N(C)CCCC(=O)O)n2)ccc1C(F)(F)F` [Compound 37, 4-(methyl(6-(N-(6-(o-tolyl)-5-(trifluoromethyl)pyridin-2-yl)sulfamoyl)pyridin-2-yl)amino)butanoic Acid], the EC50 was 2.05 µM and the Emax stood at 982%.

On to `CN(CCC(=O)O)c1cccc(S(=O)(=O)Nc2ccc(C(F)(F)F)c(-c3ccccc3C3CC3)n2)n1` [Compound 38, 3-((6-(N-(6-(2-cyclopropylphenyl)-5-(trifluoromethyl)pyridin-2-yl)sulfamoyl)pyridin-2-yl)(methyl)amino)propanoic Acid], for which the EC50 was determined as 1.7 µM and the Emax was found to be 742%.
